US10865216B2, “Tricyclic Gyrase inhibitors” (MERCK SHARP & DOHME CORP., priority 2012, dated 2020)
Converted amounts (≈) assume the structure as drawn. Like-named read-outs stand apart in the source and are kept apart here. One block for each molecule: values may come before it.

Assays:
S. aureus ATCC 13709 = assay: MIC, S. aureus ATCC 13709; type: cell-based; details: for MIC: Staphylococcus aureus
E. coli ATCC 25922 = assay: MIC, E. coli ATCC 25922; type: cell-based; details: for MIC: Escherichia coli
[1] = S. aureus, Alamar Blue read after overnight incubation at 35° C.
[2] = E. coli, Alamar Blue read after overnight incubation at 35° C.
[3] = ATCC13709, S. aureus, Alamar Blue read after overnight incubation at 35° C., read-out: MIC Sa
[4] = ATCC25922, E. coli, Alamar Blue read after overnight incubation at 35° C., read-out: MIC Ec
[5] = ATCC13709, Table 16, new R4 substituents, read-out: SA MIC
[6] = ATCC25922, Table 16, new R4 substituents, EC8 not defined, read-out: EC8 MIC

MIC Sa (S. aureus ATCC 13709; Table 18, Sa): ≤ 0.5 µg/mL
MIC Ec (E. coli ATCC 25922; Table 18, Ec): ≤ 0.5 µg/mL
SMILES: CNc1cc(F)cc2c1[nH]c1nc(Oc3cnc(C(C)O)c(Cl)c3)nc(N3CC4CCNC4C3)c12 (stereo not drawn) [Compound 10.16]

MIC Sa (S. aureus ATCC 13709; [1]): ≤0.5 µg/mL
MIC Ec (E. coli ATCC 25922; [2]): 4 µg/mL (≈ 9.21 µM)
SMILES: CNc1cc(F)cc2c1[nH]c1nc(Oc3cnc(C)nc3)nc(N3CCC4(CNC4)C3)c12 [Compound 4.125]

MIC Sa (S. aureus ATCC 13709; Table 18, Sa): ≤ 0.5 µg/mL
MIC Ec (E. coli ATCC 25922; Table 18, Ec): ≤ 0.5 µg/mL
SMILES: CNc1cc(F)cc2c1[nH]c1nc(Oc3cnc4c(c3)C(=O)OC4(C)C)nc(N3CC4C[C@@H](N)C4C3)c12 (stereo partly drawn) [Compound 10.73]

MIC Sa (S. aureus ATCC 13709; [1]): ≤0.5 µg/mL
MIC Ec (E. coli ATCC 25922; [2]): 4 µg/mL (≈ 8.9 µM)
SMILES: CNc1cc(F)cc2c1[nH]c1nc(Oc3cnc(C)nc3)nc(N3CC(N4CC(N)C4)C3)c12 [Compound 4.158]

MIC Sa (S. aureus ATCC 13709; [1]): ≤0.5 µg/mL
MIC Ec (E. coli ATCC 25922; [2]): 1 µg/mL (≈ 2.3 µM)
SMILES: CNc1cc(F)cc2c1[nH]c1nc(Oc3cnc(C)nc3)nc(N3CC(C4(N)CC4)C3)c12 [Compound 4.080]

MIC (S. aureus ATCC 13709; [5]): ≤ 0.5 µg/mL
MIC (E. coli ATCC 25922; [6]): > 16 µg/mL
SMILES: CNc1cc(F)cc2c1[nH]c1nc(Oc3cnc(C)nc3)nc(N3CC(N)C(C(F)(F)F)C3)c12 (stereo not drawn) [drawing 1824]

MIC Sa (S. aureus ATCC 13709; Table 18, Sa): ≤ 0.5 µg/mL
MIC Ec (E. coli ATCC 25922; Table 18, Ec): ≤ 0.5 µg/mL
SMILES: CNc1cc(F)cc2c1[nH]c1nc(Oc3cnc(C(C)O)c(Cl)c3)nc(N3C[C@H]4C[C@@H]3C[C@H]4N)c12 (stereo partly drawn) [Compound 10.15]

MIC Sa (S. aureus ATCC 13709; Table 18, Sa): ≤ 0.5 µg/mL
MIC Ec (E. coli ATCC 25922; Table 18, Ec): ≤ 0.5 µg/mL
SMILES: CNc1cc(F)cc2c1[nH]c1nc(Oc3cnc(C)nc3)nc(N3CC4CCC4(N)C3)c12 (stereo not drawn) [Compound 10.65]

MIC Sa (S. aureus ATCC 13709; [1]): ≤0.5 µg/mL
MIC Ec (E. coli ATCC 25922; [2]): ≤0.5 µg/mL
SMILES: CNc1cc(F)cc2c1[nH]c1nc(Oc3cncc(F)c3)nc(N3CC4C(N)C4C3)c12 (stereo not drawn) [Compound 4.055]

MIC (S. aureus ATCC 13709; [5]): 1 µg/mL (≈ 2.37 µM)
MIC (E. coli ATCC 25922; [6]): 2 µg/mL (≈ 4.73 µM)
SMILES: CNc1cc(F)cc2c1[nH]c1nc(Oc3cnc(C)nc3)nc(N3CCC[C@H]3CN)c12

MIC Sa (S. aureus ATCC 13709; [1]): ≤0.5 µg/mL
MIC Ec (E. coli ATCC 25922; [2]): 2 µg/mL (≈ 4.28 µM)
SMILES: CNc1cc(F)cc2c1[nH]c1nc(Oc3cncc([S+](C)[O-])c3)nc(N3CC4C(N)C4C3)c12 (stereo not drawn) [Compound 4.351]

MIC Sa (S. aureus ATCC 13709; [1]): ≤0.5 µg/mL
MIC Ec (E. coli ATCC 25922; [2]): ≤0.5 µg/mL
SMILES: CNc1cc(F)cc2c1[nH]c1nc(Oc3cnc(SC)nc3)nc(N3CC4(CC[C@H]4N)C3)c12 [Compound 4.202]

MIC Sa (S. aureus ATCC 13709; [1]): ≤0.5 µg/mL
MIC Ec (E. coli ATCC 25922; [2]): ≤0.5 µg/mL
SMILES: CNc1cc(F)cc2c1[nH]c1nc(Oc3cnc(SC)nc3)nc(N3CC4CC(N)C4C3)c12 (stereo not drawn) [Compound 4.201]

MIC Sa (S. aureus ATCC 13709; [1]): ≤0.5 µg/mL
MIC Ec (E. coli ATCC 25922; [2]): 2 µg/mL (≈ 4.6 µM)
SMILES: CNc1cc(F)cc2c1[nH]c1nc(Oc3cnc(C)nc3)nc(N3CC4C(CN)C4C3)c12 (stereo not drawn) [Compound 4.106]

Second part, the molecule before the results:

SMILES: CNc1cc(F)cc2c1[nH]c1nc(Oc3cnc(C4CC4)nc3)nc(C3CCC4(CC3)NC(=O)NC4=O)c12 (stereo not drawn) [Compound 4.252]
MIC Sa (S. aureus ATCC 13709; [1]): >16 µg/mL
MIC Ec (E. coli ATCC 25922; [2]): >16 µg/mL

SMILES: COc1cccc2c1[nH]c1nc(Sc3cnc4ccc[n+]([O-])c4c3)nc(N3CC[C@@H](N)C3)c12 [Compound 1.78]
MIC (S. aureus ATCC 13709; [3]): ≤ 0.5 µg/mL
MIC (E. coli ATCC 25922; [4]): 64 µg/mL (≈ 139 µM)

SMILES: CNc1cc(F)c(F)c2c1[nH]c1nc(Oc3cnc4c(c3)ncn4C3CC3)nc(N3C[C@H]4C[C@@H]3C[C@H]4N)c12 [Compound 5.15]
MIC (S. aureus ATCC 13709; [3]): ≤ 0.5 µg/mL
MIC (E. coli ATCC 25922; [4]): 1 µg/mL (≈ 1.93 µM)

SMILES: CNc1cc(F)cc2c1[nH]c1nc(Oc3cnc(C)nc3)nc(-c3cncnc3)c12 [Compound 4.449]
MIC (S. aureus ATCC 13709; [3]): ≤ 0.5 µg/mL
MIC (E. coli ATCC 25922; [4]): > 16 µg/mL

SMILES: CNc1cc(F)c(F)c2c1[nH]c1nc(Oc3cnc(C(C)C#N)nc3)nc(N3C[C@H]4C[C@@H]3C[C@H]4N)c12 (stereo partly drawn) [Compound 10.95]
MIC Sa (S. aureus ATCC 13709; Table 18, Sa): ≤ 0.5 µg/mL
MIC Ec (E. coli ATCC 25922; Table 18, Ec): ≤ 0.5 µg/mL

SMILES: CNc1cccc2c1[nH]c1nc(Sc3cnc4ccc[n+]([O-])c4c3)nc(N3CC(C4(N)CC4)C3)c12 [Compound 1.33]
MIC (S. aureus ATCC 13709; [3]): ≤ 0.5 µg/mL
MIC (E. coli ATCC 25922; [4]): 4 µg/mL (≈ 8.25 µM)

SMILES: CNc1cc(F)cc2c1[nH]c1nc3nc(c12)NCCCCNC(=O)CSc1ncc(cn1)O3
MIC (S. aureus ATCC 13709; ATCC13709, Table 15, R2 is joined to R4, read-out: SA MIC): ≤ 0.5 µg/mL
MIC (E. coli ATCC 25922; ATCC25922, Table 15, R2 is joined to R4, EC8 not defined, read-out: EC8 MIC): 2 µg/mL (≈ 4.27 µM)

SMILES: CNc1cccc2c1[nH]c1nc(Oc3cncnc3)cc(N3C[C@H](NC)C4(CC4)C3)c12 [Compound 3.47]
MIC (S. aureus ATCC 13709; [3]): ≤ 0.5 µg/mL
MIC (E. coli ATCC 25922; [4]): ≤ 0.5 µg/mL

SMILES: CNc1cccc2c1[nH]c1nc(Oc3cncnc3)cc(N3CC4C(C3)C4NC(=O)CN)c12 (stereo not drawn) [Compound 3.18]
MIC (S. aureus ATCC 13709; [3]): 4 µg/mL (≈ 9 µM)
MIC (E. coli ATCC 25922; [4]): > 16 µg/mL

SMILES: CNc1cc(F)cc2c1[nH]c1nc(Oc3cnc(N4CCOCC4)nc3)nc(N3CCC4(CC4N)C3)c12 (stereo not drawn) [Compound 4.214]
MIC Sa (S. aureus ATCC 13709; [1]): ≤0.5 µg/mL
MIC Ec (E. coli ATCC 25922; [2]): 2 µg/mL (≈ 3.96 µM)

SMILES: CNc1ncnc2c1[nH]c1nc(Oc3cnc(C)nc3)nc(N3CCC(CN)C3)c12 (stereo not drawn) [Compound 7.12]
MIC (S. aureus ATCC 13709; [3]): > 64 µg/mL
MIC (E. coli ATCC 25922; [4]): > 64 µg/mL

SMILES: CNc1cc(F)cc2c1[nH]c1nc(Oc3cnc(N)nc3)nc(N3C4CCC3CC(N)C4)c12 (stereo not drawn) [Compound 4.183]
MIC Sa (S. aureus ATCC 13709; [1]): 1 µg/mL (≈ 2.22 µM)
MIC Ec (E. coli ATCC 25922; [2]): 8 µg/mL (≈ 17.8 µM)

SMILES: COc1cccc2c1[nH]c1nc(Oc3cccc(C#N)c3)nc(N3CC4C(N)C4C3)c12 (stereo not drawn) [Compound 2.15]
MIC Sa (S. aureus ATCC 13709; [1]): 1 µg/mL (≈ 2.42 µM)
MIC Ec (E. coli ATCC 25922; [2]): >32 µg/mL
